According to patent US20050129618A1, “Drugs for ameliorating itch, rough skin or hypersensitive skin or for whitening via inhibition of the production and release of stem cell factor” (Shiseido Co., ltd., priority 2001, published 2005):

Tested on: SCF expression on keratinocyte membranes
Test: Accelerated SCF expression on keratinocyte membranes by different stimulations
Format: cell-based, human
Conditions: chemical stimulation, culturing for 24 hours; FIG. 4
Protocol: After plating 1.5 million keratinocytes on a 10 cm plate and culturing for 72 hours, the cells were stimulated by one of the following: (1) exchanging the medium with PBS(−), irradiating the culture with UVB at 20 mJ/cm^2 and then immediately exchanging the PBS(−) with medium, (2) adding forskolin, or (3) adding theophyllin. After culturing for 24 hours, the cells were collected and then dispersed in 200 μl of 50 mM phosphate buffer solution (pH 7.8)+protease inhibitor solution, and the cells were then disrupted with an ultrasonic disrupter for five 30-second disruption cycles at 4° C. After centrifugation at 10,000 g for 20 minutes at 4° C., the supernatant was further centrifuged at 100,000 g for 60 minutes at 4° C. The obtained pellet was dissolved in 100 μl of 25 mM phosphate buffer solution (pH 6.8)+0.1% Triton-X100 solution and a membrane fraction protein extract was obtained. The protein content of the solution was measured by an established method, and then the SCF amount was assayed to obtain an SCF/protein value.

Cn1c(=O)c2[nH]cnc2n(C)c1=O [theophyllin]
expression of SCF in the cells or on the cell membranes (SCF/protein value of membrane fraction): accelerated expression of SCF
